Data on 1 molecule can be found in patent US10829506B2, “Amino- or ammonium-containing sulfonic acid, phosphonic acid and carboxylic acid derivatives and their medical use” (GRI Bio, Inc., priority 2011, dated 2020).

The structures appear in SMILES notation.

In one data set the test system is BALB/cJW mice. Description: Delayed-type hypersensitivity (DTH) reaction, mouse ear swelling. Type of data set: in vivo. How it is done: The anti-inflammatory and anti-allergic effects of compound 1a was assessed in a mouse model of skin delayed-type hypersensitivity (DTH) reactions and compared to a vehicle control and to the reference drug dexamethasone. DTH reactions are antigen-specific cell-mediated immune responses, driven primarily by T helper type 1 (Th1) cells, similar to the tuberculin immunization response. The immune reaction induced by an ovalbumin challenge to animals previously sensitized with ovalbumin in Complete Freund's Adjuvant, is characterized by swelling (edema) at the site of challenge, e.g. the mouse ear. Dexamethasone, an anti-inflammatory steroid, reduces cell-mediated immune responses and was employed to validate the responsiveness of the assay to pharmacological treatment.
Female BALB/cJW mice were bred at the University of Lodz, Lodz, Poland and housed in groups of 8 in makrolon cages with a 12 h light-dark cycle. Mice were given free access to food (Agropol S. j., Motycz, Poland) and water.
Group size was n=8 mice unless otherwise stated. Test compound was freshly prepared before administration.
Sensitization: The protein antigen, ovalbumin, was reconstituted in PBS at 4 mg/ml. […] The emulsion was tested by putting a drop of emulsion onto PBS; if the emulsion remained as a light droplet on the PBS, the emulsion was deemed ready. […]
Challenge: On the sixth day after sensitization, DTH was elicited by challenging animals subcutaneously (gauge 30 needle, B. Braun Melsungen, Melsungen, Germany) in the left ears with 10 μL of a 1% suspension of heat-aggregated ovalbumin (HOVA) (100 μg ovalbumin per mouse). […] Ear thickness was measured with a precise spring-loaded caliper (Art. No, 7309, Mltutoyo, Kawasaki, Japan) before challenge, and 24 h after challenge. […]
To account for individual variability, the increase in right ear thickness, before and 24 h after administration of PBS, was subtracted from the HOVA-induced increase in left ear thickness. The increase in ear thickness was calculated by the difference between ear thickness before and 24 h after antigen challenge. […]

Data set [1] can be described thus: Body weight and toxic side-effects in the DTH study. The data set is classed as in vivo, mice. To be noted: oral. How it is done: Three hours after the last dose, the antigen challenge was performed on the ears as described above. Dexamethasone was given at 1 mg/kg orally by gavage 3 h before sensitization and once daily with the final dose given 3 h prior to antigen challenge (a total of 7 administrations). All administrations were given in a volume of 10 mL/kg.
Such high dosing (overdose) is, however, not suitable for treatment of humans due to severe side effects of the corticosteroid and was only used to validate the responsiveness of the model.

The test system of a further data set is BALB/c-mice. Description: Local lymph node weight and cell count after TDI challenge. The data set is classed as in vivo. The procedure:
Directly after sacrifice, the ear draining lymph node (Ln. auricufaris) was prepared and excised. Organ weight was determined by means of an analytical balance (Kern, Balingen, Germany). Single cell suspensions were prepared by means of a glass potter (VWR, Darmstadt, Germany) and cells were counted with a hemocytometer (Neubauer, V W R, Germany).
One of the most undesirable side-effects of corticosteroid administration is immunosuppression, which leads to the inability to effectively address parasitic infection, wound healing and tumor growth. In the current study, the local lymph node reaction after TDI challenge (lymph node weight and cell number) was determined to assess the response of immune organs.

With `CCCCCCCCCCCCCC[N+](C)(C)CCCS(=O)(=O)[O-]` [Compound 1a, 3-(N,N-Dimethylmyristylammonio)-Propanesulfonate], in the data set on BALB/cJW mice (1a oral vs dexamethasone 1 mg/kg), the “Inhibition of DTH response relative to that of a high dose of dexamethasone” value is 65%. In the data set with BALB/cJW mice (oral, 1a 100 mg/kg (loading dose, then maintenance doses), dexamethasone 1.0 mg/kg once daily, 24 h after ovalbumin challenge), the “Inhibition of mouse ear swelling (DTH response)” value is listed as 32%. Further, in data set [1], the “Toxic side-effects during the course of the study” value is “no toxic side-effects”. The “Local lymph node reaction (lymph node weight and cell number)” value in the data set with BALB/c-mice (systemic treatment at 100 mg/kg) and in the data set with BALB/c-mice (topical treatment at 2% or 6%) was “did not have any impact” each time.
